# US20230085307A1, “PYRIDAZINONE COMPOUND AND HERBICIDE” (NISSAN CHEMICAL CORPORATION, priority 2019, published 2023)
# Test system: blackgrass
# Experiment: Test Example 4: herbicidal effect by soil treatment (Table 19, symbol J)
# Format: in vivo, blackgrass (Alopecurus myosuroides)
# Settings: amount of applied herbicide 320 g/ha
# Procedure, shortened: (§1)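 Soil-surface application: an emulsion agent diluted with water to the predetermined dose is sprayed uniformly over seeds lying under roughly 1.5 cm of sterilized diluvial soil. Boxes stay in a greenhouse at 25° C. to 30° C. Three weeks later, each species is graded on previously defined criteria.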
row,Structure (SMILES),"J: blackgrass, herbicidal effect grade"
1,Cc1nn(C)c(=O)c(-c2c(-c3ccc(OCC(F)(F)F)cc3)oc3ccccc23)c1O [8-005],3 (Herbicidal rate of 40% or more and less than 70%)
2,CSCCOc1ccc(-c2oc3ccccc3c2-c2c(O)c(C)nn(C)c2=O)cc1 [8-008],0 (Herbicidal rate of 5% or less (almost no effect))
3,COc1ccc(-c2oc3ccc(Cl)cc3c2-c2c(O)c(C)nn(C)c2=O)cc1 [9-002],1 (Herbicidal rate of 5% or more and less than 20%)

# Test system: windgrass
# Experiment: Test Example 5: herbicidal effect by foliage application, plastic box (Table 20, symbol L)
# Format: in vivo, windgrass (Apera spica-venti)
# Settings: foliage application, 320 g/ha, three weeks after application
# Procedure, shortened: (§2)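 Sow seeds spot-wise in sterilized diluvial soil; cover with ~1.5 cm soil. Grow 14 days in greenhouse, 25° C. to 30° C. Spray foliage with emulsion diluted to predetermined amount. Rate effect after 3 weeks.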
row,Structure (SMILES),herbicidal effect on windgrass (L)
1,Cc1nn(C)c(=O)c(-c2c(-c3ccc(OCC(F)(F)F)cc3)oc3ccccc23)c1O [8-005],3 (Herbicidal rate of 40% or more and less than 70%)
2,CSCCOc1ccc(-c2oc3ccccc3c2-c2c(O)c(C)nn(C)c2=O)cc1 [8-008],4 (Herbicidal rate of 70% or more and less than 90%)
3,COc1ccc(-c2oc3ccc(Cl)cc3c2-c2c(O)c(C)nn(C)c2=O)cc1 [9-002],1 (Herbicidal rate of 5% or more and less than 20%)

# Test system: wild oat
# Experiment: Test Example 5: herbicidal effect by foliage application, plastic box (Table 20, symbol I)
# Format: in vivo, wild oat (Avena fatua)
# Settings: foliage application, 320 g/ha, three weeks after application
# Procedure, shortened: as §2
row,Structure (SMILES),herbicidal effect on wild oat (I)
1,Cc1nn(C)c(=O)c(-c2c(-c3ccc(OCC(F)(F)F)cc3)oc3ccccc23)c1O [8-005],0 (Herbicidal rate of 5% or less (almost no effect))
2,CSCCOc1ccc(-c2oc3ccccc3c2-c2c(O)c(C)nn(C)c2=O)cc1 [8-008],5 (Herbicidal rate of 90% or more (almost completely withered))
3,COc1ccc(-c2oc3ccc(Cl)cc3c2-c2c(O)c(C)nn(C)c2=O)cc1 [9-002],0 (Herbicidal rate of 5% or less (almost no effect))

# Test system: velvetleaf
# Experiment: Test Example 5: herbicidal effect by foliage application, plastic box (Table 20, symbol M)
# Format: in vivo, velvetleaf (Abutilon theophrasti)
# Settings: foliage application, 320 g/ha, three weeks after application
# Procedure, shortened: as §2
row,Structure (SMILES),herbicidal effect on velvetleaf (M)
1,Cc1nn(C)c(=O)c(-c2c(-c3ccc(OCC(F)(F)F)cc3)oc3ccccc23)c1O [8-005],5 (Herbicidal rate of 90% or more (almost completely withered))
2,CSCCOc1ccc(-c2oc3ccccc3c2-c2c(O)c(C)nn(C)c2=O)cc1 [8-008],5 (Herbicidal rate of 90% or more (almost completely withered))
3,COc1ccc(-c2oc3ccc(Cl)cc3c2-c2c(O)c(C)nn(C)c2=O)cc1 [9-002],5 (Herbicidal rate of 90% or more (almost completely withered))

# Test system: persian speedwell
# Experiment: Test Example 5: herbicidal effect by foliage application, plastic box (Table 20, symbol R)
# Format: in vivo, Persian speedwell (Veronica persica)
# Settings: foliage application, 320 g/ha, three weeks after application
# Procedure, shortened: as §2
row,Structure (SMILES),herbicidal effect on persian speedwell (R)
1,Cc1nn(C)c(=O)c(-c2c(-c3ccc(OCC(F)(F)F)cc3)oc3ccccc23)c1O [8-005],5 (Herbicidal rate of 90% or more (almost completely withered))
2,CSCCOc1ccc(-c2oc3ccccc3c2-c2c(O)c(C)nn(C)c2=O)cc1 [8-008],5 (Herbicidal rate of 90% or more (almost completely withered))
3,COc1ccc(-c2oc3ccc(Cl)cc3c2-c2c(O)c(C)nn(C)c2=O)cc1 [9-002],5 (Herbicidal rate of 90% or more (almost completely withered))

# Test system: Italian ryegrass
# Experiment: Test Example 4: herbicidal effect by soil treatment (Table 19, symbol K)
# Format: in vivo, Italian ryegrass (Lolium multiflorum)
# Settings: amount of applied herbicide 320 g/ha
# Procedure, shortened: as §1
row,Structure (SMILES),"K: Italian ryegrass, herbicidal effect grade"
1,Cc1nn(C)c(=O)c(-c2c(-c3ccc(OCC(F)(F)F)cc3)oc3ccccc23)c1O [8-005],5 (Herbicidal rate of 90% or more (almost completely withered))
2,CSCCOc1ccc(-c2oc3ccccc3c2-c2c(O)c(C)nn(C)c2=O)cc1 [8-008],4 (Herbicidal rate of 70% or more and less than 90%)
3,COc1ccc(-c2oc3ccc(Cl)cc3c2-c2c(O)c(C)nn(C)c2=O)cc1 [9-002],3 (Herbicidal rate of 40% or more and less than 70%)

# Test system: Italian ryegrass
# Experiment: Test Example 5: herbicidal effect by foliage application, plastic box (Table 20, symbol K)
# Format: in vivo, Italian ryegrass (Lolium multiflorum)
# Settings: foliage application, 320 g/ha, three weeks after application
# Procedure, shortened: as §2
row,Structure (SMILES),herbicidal effect on Italian ryegrass (K)
1,Cc1nn(C)c(=O)c(-c2c(-c3ccc(OCC(F)(F)F)cc3)oc3ccccc23)c1O [8-005],5 (Herbicidal rate of 90% or more (almost completely withered))
2,CSCCOc1ccc(-c2oc3ccccc3c2-c2c(O)c(C)nn(C)c2=O)cc1 [8-008],5 (Herbicidal rate of 90% or more (almost completely withered))
3,COc1ccc(-c2oc3ccc(Cl)cc3c2-c2c(O)c(C)nn(C)c2=O)cc1 [9-002],3 (Herbicidal rate of 40% or more and less than 70%)

# Test system: barnyard grass
# Experiment: Test Example 5: herbicidal effect by foliage application, plastic box (Table 20, symbol H)
# Format: in vivo, barnyard grass (Echinochloa crus-galli)
# Settings: foliage application, 320 g/ha, three weeks after application
# Procedure, shortened: as §2
row,Structure (SMILES),herbicidal effect on barnyard grass (H)
1,Cc1nn(C)c(=O)c(-c2c(-c3ccc(OCC(F)(F)F)cc3)oc3ccccc23)c1O [8-005],5 (Herbicidal rate of 90% or more (almost completely withered))
2,CSCCOc1ccc(-c2oc3ccccc3c2-c2c(O)c(C)nn(C)c2=O)cc1 [8-008],5 (Herbicidal rate of 90% or more (almost completely withered))
3,COc1ccc(-c2oc3ccc(Cl)cc3c2-c2c(O)c(C)nn(C)c2=O)cc1 [9-002],0 (Herbicidal rate of 5% or less (almost no effect))

# Test system: lambsquarters
# Experiment: Test Example 4: herbicidal effect by soil treatment (Table 19, symbol O)
# Format: in vivo, lambsquarters (Chenopodium album)
# Settings: amount of applied herbicide 320 g/ha
# Procedure, shortened: as §1
row,Structure (SMILES),"O: lambsquarters, herbicidal effect grade"
1,Cc1nn(C)c(=O)c(-c2c(-c3ccc(OCC(F)(F)F)cc3)oc3ccccc23)c1O [8-005],4 (Herbicidal rate of 70% or more and less than 90%)
2,CSCCOc1ccc(-c2oc3ccccc3c2-c2c(O)c(C)nn(C)c2=O)cc1 [8-008],4 (Herbicidal rate of 70% or more and less than 90%)
3,COc1ccc(-c2oc3ccc(Cl)cc3c2-c2c(O)c(C)nn(C)c2=O)cc1 [9-002],4 (Herbicidal rate of 70% or more and less than 90%)

# Test system: blackgrass
# Experiment: Test Example 5: herbicidal effect by foliage application, plastic box (Table 20, symbol J)
# Format: in vivo, blackgrass (Alopecurus myosuroides)
# Settings: foliage application, 320 g/ha, three weeks after application
# Procedure, shortened: as §2
row,Structure (SMILES),herbicidal effect on blackgrass (J)
1,Cc1nn(C)c(=O)c(-c2c(-c3ccc(OCC(F)(F)F)cc3)oc3ccccc23)c1O [8-005],4 (Herbicidal rate of 70% or more and less than 90%)
2,CSCCOc1ccc(-c2oc3ccccc3c2-c2c(O)c(C)nn(C)c2=O)cc1 [8-008],5 (Herbicidal rate of 90% or more (almost completely withered))
3,COc1ccc(-c2oc3ccc(Cl)cc3c2-c2c(O)c(C)nn(C)c2=O)cc1 [9-002],0 (Herbicidal rate of 5% or less (almost no effect))

# Test system: Japanese bulrush
# Experiment: Test Example 2: herbicidal activity, application during weed generation under submerged conditions (Table 17, symbol B)
# Format: in vivo, Japanese bulrush (Schoenoplectus juncoides)
# Settings: AAH 320 g/ha; application during weed generation, submerged conditions
# Procedure, shortened: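 Alluvial soil in Wagner pots was flooded to 4 cm depth and sown with the three weeds together; pots were kept in a greenhouse at 25° C. to 30° C. At the one to two leaf stage, an emulsion formulation diluted in water to a set rate went onto the water surface; scored three weeks later.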
row,Structure (SMILES),"herbicidal effect rating, B: Japanese bulrush"
1,Cc1nn(C)c(=O)c(-c2c(-c3ccc(OCC(F)(F)F)cc3)oc3ccccc23)c1O [8-005],3 (Herbicidal rate of 40% or more and less than 70%)
2,CSCCOc1ccc(-c2oc3ccccc3c2-c2c(O)c(C)nn(C)c2=O)cc1 [8-008],3 (Herbicidal rate of 40% or more and less than 70%)
3,COc1ccc(-c2oc3ccc(Cl)cc3c2-c2c(O)c(C)nn(C)c2=O)cc1 [9-002],0 (Herbicidal rate of 5% or less (almost no effect))

# Test system: green foxtail
# Experiment: Test Example 4: herbicidal effect by soil treatment (Table 19, symbol G)
# Format: in vivo, green foxtail (Setaria viridis)
# Settings: amount of applied herbicide 320 g/ha
# Procedure, shortened: as §1
row,Structure (SMILES),"G: green foxtail, herbicidal effect grade"
1,Cc1nn(C)c(=O)c(-c2c(-c3ccc(OCC(F)(F)F)cc3)oc3ccccc23)c1O [8-005],4 (Herbicidal rate of 70% or more and less than 90%)
2,CSCCOc1ccc(-c2oc3ccccc3c2-c2c(O)c(C)nn(C)c2=O)cc1 [8-008],1 (Herbicidal rate of 5% or more and less than 20%)
3,COc1ccc(-c2oc3ccc(Cl)cc3c2-c2c(O)c(C)nn(C)c2=O)cc1 [9-002],1 (Herbicidal rate of 5% or more and less than 20%)

# Test system: rice flat sedge
# Experiment: Test Example 3: herbicidal effect by foliage application, Wagner pot (Table 18, symbol E)
# Format: in vivo, rice flat sedge (Cyperus iria)
# Settings: amount of applied herbicide 320 g/ha
# Procedure, shortened: (§3)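 Plants were sown in alluvial soil held under 0.1–0.5 cm standing water and grown 14 days in a greenhouse at 25–30 °C. An emulsifiable formulation, water-diluted to the set dose, was then sprayed onto the foliage, and effects were scored three weeks later using previously defined criteria.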
row,Structure (SMILES),"Herbicidal effect on E (rice flat sedge), foliage application"
1,Cc1nn(C)c(=O)c(-c2c(-c3ccc(OCC(F)(F)F)cc3)oc3ccccc23)c1O [8-005],4 (Herbicidal rate of 70% or more and less than 90%)
2,CSCCOc1ccc(-c2oc3ccccc3c2-c2c(O)c(C)nn(C)c2=O)cc1 [8-008],4 (Herbicidal rate of 70% or more and less than 90%)
3,COc1ccc(-c2oc3ccc(Cl)cc3c2-c2c(O)c(C)nn(C)c2=O)cc1 [9-002],2 (Herbicidal rate of 20% or more and less than 40%)

# Test system: lambsquarters
# Experiment: Test Example 5: herbicidal effect by foliage application, plastic box (Table 20, symbol O)
# Format: in vivo, lambsquarters (Chenopodium album)
# Settings: foliage application, 320 g/ha, three weeks after application
# Procedure, shortened: as §2
row,Structure (SMILES),herbicidal effect on lambsquarters (O)
1,Cc1nn(C)c(=O)c(-c2c(-c3ccc(OCC(F)(F)F)cc3)oc3ccccc23)c1O [8-005],5 (Herbicidal rate of 90% or more (almost completely withered))
2,CSCCOc1ccc(-c2oc3ccccc3c2-c2c(O)c(C)nn(C)c2=O)cc1 [8-008],3 (Herbicidal rate of 40% or more and less than 70%)
3,COc1ccc(-c2oc3ccc(Cl)cc3c2-c2c(O)c(C)nn(C)c2=O)cc1 [9-002],4 (Herbicidal rate of 70% or more and less than 90%)

# Test system: barnyard grass
# Experiment: Test Example 4: herbicidal effect by soil treatment (Table 19, symbol H)
# Format: in vivo, barnyard grass (Echinochloa crus-galli)
# Settings: amount of applied herbicide 320 g/ha
# Procedure, shortened: as §1
row,Structure (SMILES),"H: barnyard grass, herbicidal effect grade"
1,Cc1nn(C)c(=O)c(-c2c(-c3ccc(OCC(F)(F)F)cc3)oc3ccccc23)c1O [8-005],5 (Herbicidal rate of 90% or more (almost completely withered))
2,CSCCOc1ccc(-c2oc3ccccc3c2-c2c(O)c(C)nn(C)c2=O)cc1 [8-008],5 (Herbicidal rate of 90% or more (almost completely withered))
3,COc1ccc(-c2oc3ccc(Cl)cc3c2-c2c(O)c(C)nn(C)c2=O)cc1 [9-002],2 (Herbicidal rate of 20% or more and less than 40%)

# Test system: Chinese sprangletop
# Experiment: Test Example 3: herbicidal effect by foliage application, Wagner pot (Table 18, symbol D)
# Format: in vivo, chinese sprangletop (Leptochloa chinensis)
# Settings: amount of applied herbicide 320 g/ha
# Procedure, shortened: as §3
row,Structure (SMILES),"Herbicidal effect on D (Chinese sprangletop), foliage application"
1,Cc1nn(C)c(=O)c(-c2c(-c3ccc(OCC(F)(F)F)cc3)oc3ccccc23)c1O [8-005],4 (Herbicidal rate of 70% or more and less than 90%)
2,CSCCOc1ccc(-c2oc3ccccc3c2-c2c(O)c(C)nn(C)c2=O)cc1 [8-008],4 (Herbicidal rate of 70% or more and less than 90%)
3,COc1ccc(-c2oc3ccc(Cl)cc3c2-c2c(O)c(C)nn(C)c2=O)cc1 [9-002],0 (Herbicidal rate of 5% or less (almost no effect))
